For the assay, the system named is triple Cys-mutants of seHAS. The assay can be described thus: NEM inactivation of triple Cys-mutants of seHAS and protection by substrates. Type of assay: biochemical, Streptococcus equisimilis. Conditions: 5 mM NEM, 4° C., 10 min. As for the experimental part:
FIG. 6. Substrates protect triple Cys-mutants of seHAS from inactivation by NEM. E. coli membranes containing the indicated triple Cys-mutant of seHAS (each with a single remaining Cys residue) were treated at 4° C. for 10 min with no additions (control; 100% values) or with 5 mM NEM alone and in the presence of either UDP, UDP-GIcUA or UDP-GIcNAc. Unreacted Nem was then quenched and HAS activity was determined. Results are not shown for the mutant containing only Cys^367, since NEM inactivation of this mutant is ˜10% and all values were essentially identical.
Although the 4 Cys residues in seHAS (positions 226, 262, 281 and 367) are roughly conserved in all Class I HAS family members, the Cys-null mutants of seHAs and spHAS are active, with minimal changes in their kinetics compared to wild type. It is also shown here that neither HAS contains disulfide bonds. To understand why these four cysteines are, nevertheless, largely conserved within the Class I HASs, NEM sensitivity was examined (i.e., the time- and dose-dependent inhibition) of all possible Cys-to-Ala mutants of seHAS. […] Cys281 appears not to be within a UDP-sugar binding site, since the triple Cys-mutant seHAS (A3C)C281 was not protected from NEM inhibition by UDP, UDP-GIcUA or UDP-GIcNAc (FIG. 6).
Stock solutions (10–100 mM) of NEM, IAA or other sulfhydryl reagents were made in PBS, pH 7.0. […]

Turning to `CCN1C(=O)C=CC1=O` [N-ethylmaleimide], the “NEM inactivation of the seHAS mutant containing only Cys^367” value is recorded as around 10%.

The values above are taken from US7094581B2, “Hyaluronan synthases and methods of making and using same” (The Board of Regents of the University of Oklahoma, priority 1998, dated 2006).
